Test results reported in article PMC12156041, “Design, Synthesis and Antiplasmodial Activities of a Library of Fluorine-Based 3-Benzylmenadiones” (Molecules, 2025).
Converted amounts (≈) assume the structure as drawn. “And” between values parts separate entries of the source, which are not always exact repeats. Identical values can stand only once. Like-named read-outs stand apart in the source and are kept apart here.

How the values were obtained:
[1] = tested on: P. falciparum NF54 strain; assay: P. falciparum NF54 [3H]hypoxanthine incorporation assay, 72 h, 0.5% Albumax; format: cell-based
[2] = tested on: P. falciparum NF54 strain; assay: P. falciparum NF54 24 h assay (species shift assay); format: cell-based
[3] = tested on: P. berghei (GFP ANKA malaria strain); assay: In vitro efficacy testing with P. berghei, 24 h (species shift assay); format: cell-based
[4] = tested on: P. berghei GFP ANKA malaria strain; assay: Drug assay in vivo in P. berghei-infected mice; conditions: p.o. 4 × 50 mg/kg; for Parasitized RBC over 100: individual mice; for Parasitized RBC over 100 / Parasitized RBC over 100, Avg. / % of Control / Activity (%): day 4; for % of Control: parasitemia; for Activity (%): reduction of parasitemia versus control
[5] = Thermodynamic aqueous solubility (shake-flask, PBS-10% DMSO); format: physicochemical; conditions: PBS with 10% DMSO, aqueous with cosolvent or surfactant or cyclodextrin, PBS pH 7.4, 10% DMSO, 20 °C, read-out: Thermodynamic aq. Solubility in PBS-10% DMSO
Experimental: Thermodynamic Aqueous Solubility: The shake-flask method enabled us to determine the apparent thermodynamic solubilities of the DMSO stock solutions of the compounds. […] The mixture was equilibrated at 20 °C for 24 h. After centrifugation, the supernatant was injected into an HPLC column coupled to an LC-MS apparatus (with UV–Vis detection) in order to determine the compound concentration. […] These solutions were also injected in order to calibrate the concentration determination process. […] Measurements were performed in duplicate.

[6] = Chromatographic Hydrophobicity Index (CHI) by HPLC; format: physicochemical; conditions: for CHI: Chromatographic Hydrophobicity Index, lipophilicity index; for chromatographic logD: pH 7.4, read-out: log D7.4
Experimental: Determination of CHI values: Compound lipophilicity influences permeability and propensity to nonspecific binding to plasma proteins. Although precise, the classical “shake flask” method is not always appropriate for the determination of high hydrophobicity, which can be alternatively measured using the Chromatographic Hydrophobicity Index method. This HPLC-based technique leads to rapid and cheap estimates of partition coefficients. […] A measure of 5 μL was injected onto the HPLC (with UV–Vis detection). […] The measurements were performed in duplicate. […] The CHI is approximately equal to the proportion of acetonitrile in the mobile phase when the compound is eluted from the column.

[7] = tested on: P. falciparum NF54 strain; conditions: cited from earlier work
[8] = tested on: rat myoblast cell line (L6 cells); conditions: cited from earlier work
P. falciparum strain Dd2 = tested on: P. falciparum strain Dd2; parameters: method as in doi:10.1002/ejoc.201600144; conditions: multi-resistant P. falciparum strain Dd2 ref 12; cited from earlier work
[9] = tested on: P. falciparum NF54 strain; assay: Serum shift assay, P. falciparum NF54 72 h in 50% human serum; conditions: for Serum Shift: 50% human serum versus 0.5% Albumax; for IC50: read-out: IC50 NF54 72 h, 50% Human Serum
[10] = Plasmodium falciparum, NF54, 72 h, read-out: IC50 NF54 72 h, 0.5% Albumax, Table 5B, 0.5% Albumax
[11] = Plasmodium falciparum, NF54, 72 h, read-out: IC50 Pf NF54, 72 h, Table 5A, species shift experiment
[12] = Plasmodium falciparum, NF54, read-out: IC50 Pf NF54, 24 h assay
[13] = Plasmodium berghei, read-out: IC50 Pb, P. berghei, 24 h assay
[14] = Plasmodium falciparum, NF54, 72 h
[15] = Plasmodium falciparum, NF54, as stated in text, read-out: IC50 against P. falciparum NF54

Compound | IC50 [1, 10] | IC50 [1, 11] | IC50 [2, 12] | IC50 [3, 13] | Parasitized RBC over 100 ([4]; 50 mg/kg) | Avg. Mouse Survival [4] | Parasitized RBC over 100, Avg. [4] | % of Control [4] | solubility thermodynamic at 24 h [5] | CHI [6] | chromatographic logD [6] | IC50 ([7]; grey line ref 9) | Tox/L6 ([8]; grey line ref 9) | Serum Shift [9] | IC50 [9, 14] | IC50 [1, 15] | further results
CC1=C(Cc2ccc(C(F)(F)F)cc2)C(=O)c2cc(F)ccc2C1=O [Cpnd 6-F-PD] | 93 nM | 120 nM | 104 nM | 170 nM | 28.2 and 35.8 and 27.8 | 7.0 days | 30.60 | 51.95% | 0.06 ± 0.01 µM (≈ 0.0209 µg/mL) | 117 | 4.75 | 181 nM | 44.7 µM | 0.9 | 80 nM |  | Activity (%) ([4]; 50 mg/kg): 48.05%; Activity (%) ([4]; listed as 6-fluoro–plasmodione, 50 mg/kg): 50%; IC50 (P. falciparum strain Dd2): 59 ± 11 nM
CC1=C(Cc2ccc(OC(F)(F)F)cc2)C(=O)c2ccccc2C1=O [A-b-3] |  |  |  |  |  |  |  |  |  |  |  |  |  |  | 473 nM |  | IC50 [1, 14]: 83 nM; IC50 ([1]; Plasmodium falciparum, NF54, 72 h, read-out: IC50 NF54 72 h, 0.5% Albumax): 83 nM; IC50 ([1]; Plasmodium falciparum, NF54, 72 h, read-out: IC50 Pf NF54, 72 h): 83 nM; IC50 ([1]; Plasmodium falciparum, NF54, read-out: IC50 against P. falciparum NF54): < 100 nM; IC50 ([2]; Plasmodium falciparum, NF54, 24 h, read-out: IC50 Pf NF54, 24 h): 223 nM; IC50 ([3]; Plasmodium berghei, 24 h, read-out: IC50 Pb, 24 h): 191 nM
COc1ccc(CC2=C(C)C(=O)c3ccccc3C2=O)cc1 [A-b-16] |  |  |  |  |  |  |  |  | 1.07 ± 0.02 µM (≈ 0.313 µg/mL) | 106 | 4.22 |  |  |  |  |  | 
CC1=C(Cc2c(F)c(F)c(F)c(F)c2F)C(=O)c2ccccc2C1=O [A-b-47] | 81 nM | 91 nM | 184 nM | 265 nM | 65.4 and 62.4 and 72.5 | 4.0 days | 66.77 | 113.36% | 0.33 ± 0.01 µM (≈ 0.116 µg/mL) | 115 | 4.67 | 60 nM | 161.0 µM | 4.0 | 324 nM | < 100 nM | Activity (%) [4]: −13.36%
COc1cc(CC2=C(C)C(=O)c3ccccc3C2=O)cc(OC)c1 [B-b-35] |  |  |  |  |  |  |  |  | 0.75 ± 0.14 µM (≈ 0.242 µg/mL) | 107 | 4.27 | 52 nM | 70.3 µM |  |  | < 100 nM | 
C[C@H]1[C@H](OC(=O)CCC(=O)O)O[C@@H]2O[C@@]3(C)CC[C@H]4[C@H](C)CC[C@@H]1[C@@]24OO3 [AS, artesunate, reference compound] |  | 4.8 nM |  | 13 nM |  |  |  |  |  |  |  |  |  |  | 1 nM |  | 
CC1=C(Cc2ccc(C(F)(F)F)cc2)C(=O)c2ccc(F)cc2C1=O [Cpnd 7-F-PD] | 89 nM | 93 nM | 157 nM | 138 nM | 64.7 and 69.0 and 62.2 | 4.0 days | 65.30 | 110.87% | 0.59 ± 0.01 µM (≈ 0.205 µg/mL) |  |  |  |  | 4.2 | 377 nM |  | Activity (%) [4]: −10.87%
COc1ccc(OC)c(CC2=C(C)C(=O)c3ccccc3C2=O)c1 [A-b-26] |  |  |  |  |  |  |  |  | 0.59 ± 0.01 µM (≈ 0.19 µg/mL) | 107 | 4.26 | 67 nM | 158.5 µM |  |  |  | 
CC1=C(Cc2ccc(C#N)cc2)C(=O)c2ccccc2C1=O [A-b-10] |  |  |  |  |  |  |  |  | 0.82 ± 0.01 µM (≈ 0.236 µg/mL) | 97 | 3.75 |  |  |  |  | > 200 nM | IC50 ([7]; grey line ref 8): 374 nM; Tox/L6 ([8]; grey line ref 8): 112.5 µM
CC1=C(Cc2ccc(F)c(C(F)(F)F)c2)C(=O)c2ccccc2C1=O [A-b-9, 4′-fluoro-3′-trifluoromethyl-benzylmenadione] | 59 nM | 62 nM | 143 nM | 149 nM | 70.3 and 49.1 and 52.4 | 4.0 days | 57.27 | 97.23% | 0.67 ± 0.01 µM (≈ 0.233 µg/mL) |  |  |  |  | 6.1 | 355 nM | < 100 nM | IC50 ([1]; Plasmodium falciparum, NF54, 72 h, P. falciparum NF54, 72 h, read-out: IC50): 77 nM; Activity (%) [4]: 2.77%
CCN(CC)CCCC(C)Nc1ccnc2cc(Cl)ccc12 (stereo not drawn) [CQ, reference compound] |  |  |  |  |  |  |  |  |  |  |  |  |  |  |  |  | IC50 ([1]; read-out: IC50 NF54 72 h, 0.5% Albumax, Table 5B, 0.5% Albumax): 5 nM; IC50 ([1]; read-out: IC50 Pf NF54, 72 h, Table 5A, species shift experiment): 11 nM; IC50 ([2]; read-out: IC50 Pf NF54, 24 h, 24 h assay): 4.9 nM; IC50 ([3]; read-out: IC50 Pb, 24 h, P. berghei, 24 h assay): 16 nM; IC50 [9]: 6.6 nM
